Source: US20240199663A1, “Cyclopolyphosphazenes, Related Methods of Preparation and Methods of Use” (University of Saskatchewan, priority 2021, published 2024)

Experiments:
[1] = system: SipD-antigen-specific IgG; assay: Vaccination in chicken with SipD as an antigen, serum IgG ELISA; assay type: in vivo, Leghorn chicken; details: triple adjuvant composition (20 μg polyphosphazene: 40 μg IDR-1002: 20 μg Poly(I:C)) with 10 μg SipD, intramuscular, after two immunizations (Week 4), FIG. 1B
Procedure: To assess the adjuvant activity of cyclopolyphosphazene candidates, such as 37, 11 and 39, an in vivo study was conducted with intramuscular administration of a Salmonella typhimurium Cell invasion protein (SipD) vaccine in young chicken. Two-week-old Leghorn chicken were randomly divided into three single adjuvant groups, three triple adjuvant groups and one PBS-adjuvant control group (n=12/group). The single adjuvant groups contained 20 μg PCEP, 11 or 37 polyphosphazene. All triple adjuvants comprised Poly(I:C), IDR-1002 peptide and a polyphosphazene: either PCEP, 37 or 11.
All vaccines were formulated prior to administration and injected in 200 μL intramuscularly in the tail area. Chicken were vaccinated at Day 0 and Day 14 (Week 2) with the same dose. […]
Serum was collected on days 0, 14 and 28 for SipD-antigen-specific IgG ELISAs. […] Plates were read with a Molecular Devices SpectraMax Plus 384 Reader™. Data were expressed as titres, which represent the dilution factor required to generate an absorbance reading two standard deviations above the average value of the negative control, e.g. serum from control chicken receiving no vaccination.

antigen-specific IgG1 = assay: Vaccination in mice with ovalbumin as an antigen, serum IgG1 ELISA; assay type: in vivo, Balb/c mice; details: triple adjuvant composition (10 μg polyphosphazene: 20 μg IDR-1002: 10 μg Poly(I:C)) with Ova 50 μg or 1 μg, intramuscular, after two immunizations (Week 8), FIGS. 2 and 5
Procedure: (§1) To assess the adjuvant activity of the cyclopolyphosphazene 37, four in vivo studies were conducted with intramuscular administration of an ovalbumin (Ova) vaccine in mice. In the first two studies, the Ova vaccine was either formulated with no adjuvant or with a triple adjuvant (TriAdj). The first two studies compared three different triple adjuvants, all comprising Poly(I:C), IDR-1002 peptide and a polyphosphazene: either PCEP, 37 or 11. The third and fourth studies compared four different triple adjuvants, all comprising Poly(I:C), IDR-1002 peptide and a polyphosphazene: either PCEP, compound 11, compound 37 or compound 39.
(§2) In all studies, mice were randomized to cages such that the various treatment groups were not together in the same cage. All groups received Ova antigen mixed with the adjuvant (or not) just prior to intramuscular administration. All the vaccines were formulated and injected in 50 μL (25 μ/leg). Mice were vaccinated at Day 0 and Day 28 (Week 4) with the same dose.
(§3) In all studies, serum was collected on days 0, 28 and 56 for antigen-specific IgG1 and IgG2a ELISAs. […] Plates were read with a Biorad iMark Microplate Reader™. Data were expressed as titres, which represent the dilution factor required to generate an absorbance reading three standard deviations above the average value of the negative control, e.g. serum from control mice receiving no vaccination. […]

antigen-specific IgG2a = assay: Vaccination in mice with ovalbumin as an antigen, serum IgG2a ELISA; assay type: in vivo, Balb/c mice; details: triple adjuvant composition (10 μg polyphosphazene: 20 μg IDR-1002: 10 μg Poly(I:C)) with Ova 50 μg or 1 μg, intramuscular, after two immunizations (Week 8), FIGS. 3 and 5
Procedure: as §1, §2, §3

CCCCCCCCCCCC(=O)NCCCCCCNC(=O)C(CCCCN)NC(=O)CCc1ccc(OP2(Oc3ccc(CCC(=O)NC(CCCCN)C(=O)NCCCCCCNC(=O)CCCCCCCCCCC)cc3)=NP(Oc3ccc(CCC(=O)NC(CCCCN)C(=O)NCCCCCCNC(=O)CCCCCCCCCCC)cc3)(Oc3ccc(CCC(=O)NC(CCCCN)C(=O)NCCCCCCNC(=O)CCCCCCCCCCC)cc3)=NP(Oc3ccc(CCC(=O)NC(CCCCN)C(=O)NCCCCCCNC(=O)CCCCCCCCCCC)cc3)(Oc3ccc(CCC(=O)NC(CCCCN)C(=O)NCCCCCCNC(=O)CCCCCCCCCCC)cc3)=N2)cc1 (stereo not drawn) [Compound 37, N,N′,N″,N′″,N″″,N′″″-(((2,2′,2″,22′″,2″″,2′″″-((3,3′,3″,3′″,3″″,3′″″-(((1,3,5,2l5,4l5,6l5-triazatriphosphinine-2,2,4,4,6,6-hexayl)hexakis(oxy))hexakis(benzene-4,1-diyl))hexakis(propanoyl))hexakis(azanediyl))hexakis(6-aminohexanoyl))hexakis(azanediyl))hexakis(hexane-6,1-diyl))hexadodecanamide]
significantly greater response: antigen-specific IgG titres relative to a vaccine without adjuvant [1] | response in IgG1 relative to a vaccine without adjuvant (antigen-specific IgG1) | response in IgG2a relative to a vaccine without adjuvant (antigen-specific IgG2a)
